Source: ChEMBL document CHEMBL1201862, “PubChem BioAssay data set” (2004)
Activity calls are given as the source filed them.

Key:
Assay type in all cases: functional
[1] = molecular target: Mitogen-activated protein kinase kinase kinase kinase 2 (Homo sapiens, UniProt Q12851);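 further: measured as one member of a kinome-wide kinase panel, with MAP4K2 as the panel entry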
[2] = molecular target: Rho-associated protein kinase 1 (Homo sapiens, UniProt Q13464);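 further: measured within a broad kinome-wide panel profiling many kinases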
Chain of Rho-associated protein kinase 1 (Q13464 whole entry): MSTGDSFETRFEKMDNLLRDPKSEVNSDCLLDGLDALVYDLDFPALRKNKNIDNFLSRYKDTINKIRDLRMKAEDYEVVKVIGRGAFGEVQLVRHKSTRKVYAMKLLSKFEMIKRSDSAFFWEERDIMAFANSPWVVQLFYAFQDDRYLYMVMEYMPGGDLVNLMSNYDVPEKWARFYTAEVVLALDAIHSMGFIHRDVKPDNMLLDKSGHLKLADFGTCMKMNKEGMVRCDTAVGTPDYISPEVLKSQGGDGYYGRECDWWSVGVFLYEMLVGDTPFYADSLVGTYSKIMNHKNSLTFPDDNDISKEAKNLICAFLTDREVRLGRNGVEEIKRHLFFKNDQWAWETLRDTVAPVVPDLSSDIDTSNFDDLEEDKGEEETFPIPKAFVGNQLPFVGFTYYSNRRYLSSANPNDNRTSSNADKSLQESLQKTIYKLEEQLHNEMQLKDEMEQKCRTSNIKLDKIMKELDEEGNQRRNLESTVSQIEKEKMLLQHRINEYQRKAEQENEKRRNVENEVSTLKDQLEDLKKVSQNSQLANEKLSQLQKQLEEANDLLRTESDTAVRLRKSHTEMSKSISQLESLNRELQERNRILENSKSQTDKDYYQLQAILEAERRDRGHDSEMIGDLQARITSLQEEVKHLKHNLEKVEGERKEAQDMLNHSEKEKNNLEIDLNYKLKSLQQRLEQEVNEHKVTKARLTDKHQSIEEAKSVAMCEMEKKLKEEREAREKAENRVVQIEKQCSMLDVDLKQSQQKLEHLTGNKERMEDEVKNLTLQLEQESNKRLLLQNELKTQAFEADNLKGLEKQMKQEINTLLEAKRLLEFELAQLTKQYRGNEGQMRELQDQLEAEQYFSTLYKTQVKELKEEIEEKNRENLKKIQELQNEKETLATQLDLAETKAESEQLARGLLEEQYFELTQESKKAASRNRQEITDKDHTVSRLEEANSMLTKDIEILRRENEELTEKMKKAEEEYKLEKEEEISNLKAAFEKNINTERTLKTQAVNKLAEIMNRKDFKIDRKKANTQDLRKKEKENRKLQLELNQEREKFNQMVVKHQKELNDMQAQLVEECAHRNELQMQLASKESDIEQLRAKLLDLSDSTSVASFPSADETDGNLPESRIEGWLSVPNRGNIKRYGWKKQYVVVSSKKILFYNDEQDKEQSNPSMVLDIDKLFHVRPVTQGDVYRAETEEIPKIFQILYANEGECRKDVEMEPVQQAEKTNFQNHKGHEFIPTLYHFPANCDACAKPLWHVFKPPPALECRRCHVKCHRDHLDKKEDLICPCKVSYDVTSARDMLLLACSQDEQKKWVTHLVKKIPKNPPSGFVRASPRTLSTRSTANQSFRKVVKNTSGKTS

[3] = molecular target: Vascular endothelial growth factor receptor 2 (Homo sapiens, UniProt P35968)
[4] = molecular target: cAMP-dependent protein kinase catalytic subunit alpha (Homo sapiens, UniProt P17612)
[5] = molecular target: cAMP-dependent protein kinase catalytic subunit PRKX (Homo sapiens, UniProt P51817)
[6] = molecular target: T1, Serine/threonine-protein kinase D3 (Homo sapiens, UniProt O94806);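 further: determined within a kinase panel screen, with PRKCN as the panel member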
T1 sequence (O94806 whole entry): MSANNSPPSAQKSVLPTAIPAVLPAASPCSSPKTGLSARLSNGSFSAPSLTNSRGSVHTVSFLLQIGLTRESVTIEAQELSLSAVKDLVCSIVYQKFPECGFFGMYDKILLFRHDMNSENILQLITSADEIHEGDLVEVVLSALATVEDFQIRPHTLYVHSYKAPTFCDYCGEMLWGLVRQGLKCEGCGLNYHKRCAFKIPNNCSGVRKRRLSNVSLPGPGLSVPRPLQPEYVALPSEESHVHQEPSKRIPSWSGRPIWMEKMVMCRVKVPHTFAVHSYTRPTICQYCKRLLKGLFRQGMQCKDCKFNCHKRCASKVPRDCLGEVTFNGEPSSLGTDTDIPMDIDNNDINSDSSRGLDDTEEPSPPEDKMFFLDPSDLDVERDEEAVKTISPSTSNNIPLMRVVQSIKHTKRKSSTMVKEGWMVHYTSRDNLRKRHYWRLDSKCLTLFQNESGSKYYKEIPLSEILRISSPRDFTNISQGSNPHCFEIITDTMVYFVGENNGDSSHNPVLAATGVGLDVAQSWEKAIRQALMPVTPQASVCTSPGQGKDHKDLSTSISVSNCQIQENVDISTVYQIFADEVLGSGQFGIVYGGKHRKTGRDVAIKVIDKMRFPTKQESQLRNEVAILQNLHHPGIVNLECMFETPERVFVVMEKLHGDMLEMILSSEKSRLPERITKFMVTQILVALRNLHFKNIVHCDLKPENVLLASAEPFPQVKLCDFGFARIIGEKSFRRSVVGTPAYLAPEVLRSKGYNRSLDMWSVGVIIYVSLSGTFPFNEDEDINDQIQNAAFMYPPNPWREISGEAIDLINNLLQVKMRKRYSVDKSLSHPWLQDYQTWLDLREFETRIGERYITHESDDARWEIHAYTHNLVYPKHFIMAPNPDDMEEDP

Activin receptor type-1 = Activin receptor type-1 (Homo sapiens, UniProt Q04771); assay: Navigating the Kinome. Panel member name: ACVR1
[7] = molecular target: Tyrosine-protein kinase JAK2 (Homo sapiens, UniProt O60674);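 further: JAK2 tested as one member of a kinase panel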
[8] = molecular target: Macrophage-stimulating protein receptor (Homo sapiens, UniProt Q04912); assay: Navigating the Kinome. Panel member name: MST1R
[9] = molecular target: High affinity nerve growth factor receptor (Homo sapiens, UniProt P04629);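 further: NTRK1 tested as one member of a kinome-wide profiling panel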
[10] = molecular target: Maternal embryonic leucine zipper kinase (Homo sapiens, UniProt Q14680)
[11] = molecular target: Leukocyte tyrosine kinase receptor (Homo sapiens, UniProt P29376); assay: Navigating the Kinome. Panel member name: LTK
[12] = molecular target: Dual specificity tyrosine-phosphorylation-regulated kinase 1B (Homo sapiens, UniProt Q9Y463); assay: Navigating the Kinome. Panel member name: DYRK1B
Chain of Dual specificity tyrosine-phosphorylation-regulated kinase 1B (Q9Y463 whole entry): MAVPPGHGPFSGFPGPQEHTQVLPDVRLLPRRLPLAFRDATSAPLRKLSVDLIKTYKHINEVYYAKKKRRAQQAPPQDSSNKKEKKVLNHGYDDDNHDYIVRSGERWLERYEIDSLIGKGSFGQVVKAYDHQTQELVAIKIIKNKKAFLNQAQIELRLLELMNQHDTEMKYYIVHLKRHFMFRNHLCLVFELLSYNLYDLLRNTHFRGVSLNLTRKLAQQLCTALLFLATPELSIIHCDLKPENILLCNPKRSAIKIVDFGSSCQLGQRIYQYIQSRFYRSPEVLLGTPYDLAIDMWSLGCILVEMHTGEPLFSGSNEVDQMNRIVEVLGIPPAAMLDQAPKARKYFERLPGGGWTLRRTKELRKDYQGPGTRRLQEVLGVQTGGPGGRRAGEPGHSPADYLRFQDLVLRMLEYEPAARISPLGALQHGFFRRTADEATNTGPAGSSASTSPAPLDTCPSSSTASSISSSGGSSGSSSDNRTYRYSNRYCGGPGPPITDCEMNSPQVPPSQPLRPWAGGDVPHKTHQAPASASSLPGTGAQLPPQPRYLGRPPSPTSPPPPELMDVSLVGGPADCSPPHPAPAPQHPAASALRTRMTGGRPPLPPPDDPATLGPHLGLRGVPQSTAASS

[13] = molecular target: Inhibitor of nuclear factor kappa-B kinase subunit epsilon (Homo sapiens, UniProt Q14164); assay: Navigating the Kinome. Panel member name: IKBKE
[14] = molecular target: Serine/threonine-protein kinase Nek2 (Homo sapiens, UniProt P51955)
[15] = molecular target: Serine/threonine-protein kinase TBK1 (Homo sapiens, UniProt Q9UHD2); assay: Navigating the Kinome. Panel member name: TBK1
[16] = molecular target: Hepatocyte growth factor receptor (Homo sapiens, UniProt P08581);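 further: kinase panel profiling across the kinome, with MET as the panel member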
[17] = molecular target: Leucine-rich repeat serine/threonine-protein kinase 2 (Homo sapiens, UniProt Q5S007);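 further: value from a broad kinome-wide panel profiling study in which LRRK2 was one of the kinases tested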
[18] = molecular target: Cell division cycle 7-related protein kinase (Homo sapiens, UniProt O00311);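 further: value obtained from a kinome-wide kinase panel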
[19] = molecular target: Dual specificity mitogen-activated protein kinase kinase 2 (Homo sapiens, UniProt P36507); assay: Navigating the Kinome. Panel member name: MAP2K2
Chain of Dual specificity mitogen-activated protein kinase kinase 2 (P36507 whole entry): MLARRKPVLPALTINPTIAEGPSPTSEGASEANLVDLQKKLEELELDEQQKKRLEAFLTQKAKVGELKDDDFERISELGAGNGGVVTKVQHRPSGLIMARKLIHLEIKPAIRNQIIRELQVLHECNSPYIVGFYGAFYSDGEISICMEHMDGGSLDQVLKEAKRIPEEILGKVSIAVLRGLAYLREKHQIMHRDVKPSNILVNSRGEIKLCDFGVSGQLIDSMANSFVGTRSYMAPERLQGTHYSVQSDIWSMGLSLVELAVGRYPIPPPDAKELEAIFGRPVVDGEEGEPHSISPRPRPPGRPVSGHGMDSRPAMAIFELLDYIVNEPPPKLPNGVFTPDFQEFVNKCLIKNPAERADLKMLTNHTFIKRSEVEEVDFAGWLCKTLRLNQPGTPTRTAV

[20] = molecular target: 5'-AMP-activated protein kinase catalytic subunit alpha-1 (Homo sapiens, UniProt Q13131)
[21] = molecular target: Insulin-like growth factor 1 receptor (Homo sapiens, UniProt P08069); assay: Navigating the Kinome. Panel member name: IGF1R
[22] = molecular target: Protein kinase C theta type (Homo sapiens, UniProt Q04759); assay: Navigating the Kinome. Panel member name: PRKCQ
[23] = molecular target: Dual specificity protein kinase CLK4 (Homo sapiens, UniProt Q9HAZ1)
Chain of Dual specificity protein kinase CLK4 (Q9HAZ1 whole entry): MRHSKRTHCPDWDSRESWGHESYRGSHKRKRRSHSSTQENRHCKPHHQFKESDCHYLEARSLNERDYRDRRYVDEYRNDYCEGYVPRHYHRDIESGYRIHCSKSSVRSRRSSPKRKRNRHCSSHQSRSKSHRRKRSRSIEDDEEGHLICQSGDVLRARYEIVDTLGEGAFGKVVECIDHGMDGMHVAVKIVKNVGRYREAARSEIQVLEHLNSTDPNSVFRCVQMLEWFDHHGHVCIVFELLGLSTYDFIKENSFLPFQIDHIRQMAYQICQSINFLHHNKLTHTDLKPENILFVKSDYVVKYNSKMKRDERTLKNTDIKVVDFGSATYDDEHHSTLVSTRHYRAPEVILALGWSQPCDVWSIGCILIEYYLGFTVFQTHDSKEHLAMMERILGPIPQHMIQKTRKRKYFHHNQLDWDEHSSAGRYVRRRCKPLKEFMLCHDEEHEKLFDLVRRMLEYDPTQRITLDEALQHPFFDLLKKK

[24] = molecular target: Cyclin-dependent kinase 9 (Homo sapiens, UniProt P50750);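 further: value from the CDK9 entry of a kinome-spanning kinase panel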
[25] = molecular target: Serine/threonine-protein kinase PAK 4 (Homo sapiens, UniProt O96013);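 further: value obtained within a kinome profiling panel in which PAK4 was one of the panel members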
Chain of Serine/threonine-protein kinase PAK 4 (O96013 whole entry, canonical isoform): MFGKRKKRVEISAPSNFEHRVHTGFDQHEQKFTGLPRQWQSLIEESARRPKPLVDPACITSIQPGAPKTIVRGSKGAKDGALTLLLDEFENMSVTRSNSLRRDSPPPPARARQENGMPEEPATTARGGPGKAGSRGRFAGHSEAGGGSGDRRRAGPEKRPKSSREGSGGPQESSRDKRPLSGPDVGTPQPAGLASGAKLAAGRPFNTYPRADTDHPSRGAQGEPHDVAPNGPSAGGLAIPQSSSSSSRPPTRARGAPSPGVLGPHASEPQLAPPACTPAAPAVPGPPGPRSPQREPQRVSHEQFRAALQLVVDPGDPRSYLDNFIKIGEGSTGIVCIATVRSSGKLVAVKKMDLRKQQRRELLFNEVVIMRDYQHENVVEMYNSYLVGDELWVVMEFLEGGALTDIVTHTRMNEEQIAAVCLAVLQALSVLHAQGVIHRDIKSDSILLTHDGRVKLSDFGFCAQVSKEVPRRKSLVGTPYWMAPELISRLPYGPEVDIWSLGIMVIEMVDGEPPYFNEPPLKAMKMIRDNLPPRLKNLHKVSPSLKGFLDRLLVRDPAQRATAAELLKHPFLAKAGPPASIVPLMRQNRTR

[26] = molecular target: Casein kinase I isoform alpha (Homo sapiens, UniProt P48729)
[27] = molecular target: Homeodomain-interacting protein kinase 2 (Homo sapiens, UniProt Q9H2X6);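 further: measured within a kinome-wide kinase profiling panel, HIPK2 being one panel member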
[28] = molecular target: Mitogen-activated protein kinase 8 (Homo sapiens, UniProt P45983);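 further: value comes from one member of a kinome-wide kinase profiling panel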
Chain of Mitogen-activated protein kinase 8 (P45983 whole entry): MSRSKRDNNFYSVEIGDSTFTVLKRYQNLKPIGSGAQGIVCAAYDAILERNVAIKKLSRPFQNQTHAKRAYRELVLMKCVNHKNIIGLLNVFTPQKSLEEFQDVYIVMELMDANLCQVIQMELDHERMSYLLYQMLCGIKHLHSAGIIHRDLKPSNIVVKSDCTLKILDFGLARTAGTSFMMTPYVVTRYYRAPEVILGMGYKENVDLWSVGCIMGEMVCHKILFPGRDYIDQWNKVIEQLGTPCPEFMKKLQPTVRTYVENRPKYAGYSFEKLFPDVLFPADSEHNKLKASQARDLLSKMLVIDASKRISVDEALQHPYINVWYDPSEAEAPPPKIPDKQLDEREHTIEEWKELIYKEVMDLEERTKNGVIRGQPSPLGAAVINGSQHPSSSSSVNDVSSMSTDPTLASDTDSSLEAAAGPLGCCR

[29] = molecular target: Calcium/calmodulin-dependent protein kinase type II subunit alpha (Homo sapiens, UniProt Q9UQM7); assay: Navigating the Kinome. Panel member name: CAMK2A
Chain of Calcium/calmodulin-dependent protein kinase type II subunit alpha (Q9UQM7 whole entry): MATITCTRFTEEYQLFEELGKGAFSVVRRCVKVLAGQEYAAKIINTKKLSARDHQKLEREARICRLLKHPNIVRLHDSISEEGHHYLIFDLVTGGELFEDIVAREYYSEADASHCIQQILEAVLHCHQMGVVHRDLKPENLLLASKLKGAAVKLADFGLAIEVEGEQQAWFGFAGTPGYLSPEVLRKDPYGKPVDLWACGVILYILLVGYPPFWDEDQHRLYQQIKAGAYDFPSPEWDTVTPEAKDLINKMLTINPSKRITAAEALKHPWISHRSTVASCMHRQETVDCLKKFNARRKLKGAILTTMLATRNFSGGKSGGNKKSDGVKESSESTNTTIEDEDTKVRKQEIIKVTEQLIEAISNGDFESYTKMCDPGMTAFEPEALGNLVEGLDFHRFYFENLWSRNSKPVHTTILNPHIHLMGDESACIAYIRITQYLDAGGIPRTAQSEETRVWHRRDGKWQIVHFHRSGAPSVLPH

[30] = molecular target: Proto-oncogene tyrosine-protein kinase receptor Ret (Homo sapiens, UniProt P07949);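 further: measured within a kinome-wide profiling panel, RET as the panel member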
[31] = molecular target: Mitogen-activated protein kinase kinase kinase kinase 4 (Homo sapiens, UniProt O95819)
[32] = molecular target: Tyrosine-protein kinase Lck (Homo sapiens, UniProt P06239);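 further: lck was assayed as one member of a kinase panel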
Chain of Tyrosine-protein kinase Lck (P06239 whole entry): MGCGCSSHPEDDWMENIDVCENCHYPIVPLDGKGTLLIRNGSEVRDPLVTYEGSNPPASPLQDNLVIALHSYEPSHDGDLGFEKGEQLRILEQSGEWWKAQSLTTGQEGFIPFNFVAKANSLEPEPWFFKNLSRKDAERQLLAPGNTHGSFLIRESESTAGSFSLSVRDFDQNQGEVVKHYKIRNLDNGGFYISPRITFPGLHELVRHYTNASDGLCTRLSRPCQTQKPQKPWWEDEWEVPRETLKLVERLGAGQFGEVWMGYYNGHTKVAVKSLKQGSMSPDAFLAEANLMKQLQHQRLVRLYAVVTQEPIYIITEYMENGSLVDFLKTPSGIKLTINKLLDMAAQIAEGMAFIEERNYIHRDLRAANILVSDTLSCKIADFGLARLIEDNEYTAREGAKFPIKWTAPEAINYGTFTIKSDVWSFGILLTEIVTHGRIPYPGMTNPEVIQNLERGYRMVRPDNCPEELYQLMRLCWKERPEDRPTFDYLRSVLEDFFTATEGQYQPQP

Focal adhesion kinase 1 = Focal adhesion kinase 1 (Homo sapiens, UniProt Q05397);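 further: measured as one member of a kinome panel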

Measured: Ki

CS(=O)(=O)N(Cc1ccc2[nH]c(=O)c3cccn3c2c1)C1CC1
active: [10] 0.2 µM | [18] 0.1 µM | [27] 0.0631 µM
inactive: [1] > 2 µM | [2] > 6.31 µM | [3] > 5.01 µM | [4] > 3.98 µM | [5] > 1.58 µM | [6] > 2 µM | Activin receptor type-1 > 3.98 µM | [7] > 1.58 µM | [8] > 3.98 µM | [9] > 1.58 µM | [11] > 2.51 µM | [12] > 2.51 µM | [13] > 3.16 µM | [14] > 1.58 µM | [15] > 3.16 µM | [16] > 2.51 µM | [17] > 2.51 µM | [19] > 3.98 µM | [20] > 1.58 µM | [21] > 1.26 µM | [22] > 2.51 µM | [23] > 6.31 µM | [24] > 1.58 µM | [25] > 3.16 µM | [26] > 5.01 µM | [28] > 3.16 µM | [29] > 3.98 µM | [30] > 1.58 µM

CS(=O)(=O)Nc1ccc(Nc2ccc3[nH]nc(N)c3c2)cc1
active: [2] 1.58 µM | [6] 3.16 µM | [12] 1.26 µM | [23] 0.501 µM
inactive: [31] > 5.01 µM | [32] > 6.31 µM | [25] > 5.01 µM | [28] > 5.01 µM | Focal adhesion kinase 1 > 6.31 µM

O=C(Nc1n[nH]c2ccc(-c3cn(Cc4ccccc4)nn3)cc12)c1cc(F)ccc1F
inactive: [1] > 2.51 µM | [2] > 2 µM | [3] > 2.51 µM | [4] > 2.51 µM | [6] > 3.98 µM | [7] > 2.51 µM | [9] > 3.16 µM | [11] > 2.51 µM | [14] > 3.16 µM | [16] > 2.51 µM | [19] > 3.98 µM | [21] > 2.51 µM | [32] > 6.31 µM | [29] > 3.98 µM | Focal adhesion kinase 1 > 6.31 µM
active: [5] 0.316 µM | Activin receptor type-1 3.98 µM | [8] 2.51 µM | [10] 0.398 µM | [12] 0.00501 µM | [13] 1.26 µM | [15] 0.794 µM | [31] 2 µM | [17] 1.26 µM | [18] 0.00316 µM | [20] 0.398 µM | [22] 1.58 µM | [23] 0.01 µM | [24] 0.398 µM | [25] 3.16 µM | [26] 1.58 µM | [27] 0.1 µM | [28] 0.501 µM | [30] 2 µM
